The target of test [1] is T1, RIPK2 enzyme (Homo sapiens, UniProt O43353).
T1 construct: purchased Carna 09-128
The experiment in a line: RIPK2 inhibition (ADP-Glo Kinase Assay). Type of test: biochemical. The conditions noted are these: RIPK2 5 nM, ATP 150 μM, MBP substrate, read-out: RIPK2 IC50. Put shortly:
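Human RIPK2 (5 nM) preincubated with compound 30 min at room temperature in 50 mM HEPES pH 7.5, 10 mM MgCl2, 2 mM DTT, 1 mM EGTA, 0.01% Brij-35, 0.05% BSA; native swine MBP as substrate. ADP formed quantified by ADP-Glo luminescence; percent inhibition relative to DMSO and no-enzyme controls.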

The test system of test [2] is human NOD2 signaling. The experiment in a line: Inhibition of human NOD2 signaling in HEK-Blue-hNOD2 cells (L18-MDP stimulated, SEAP reporter). The class given is cell-based. The conditions noted are these: Homo sapiens, HEK-Blue hNOD2, HEK-Blue-hNOD2 cells, NOD2 ligand stimulation, SEAP reporter; read-out: hNOD2 IC50. Put shortly:
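HEK-Blue-hNOD2 cells (HEK293 with NOD2 and SEAP reporter), 12500/well, treated with 10-point 3-fold compound dilutions plus L18-MDP 0.5 ng/mL final, 24 h at 37 °C. Supernatant SEAP read with QUANTI-Blue after 3 h at 620 nm; IC50 by 4-parameter fit vs DMSO±L18-MDP controls.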

Test [3] addresses T2, RIPK2 and XIAP protein-protein interaction (Homo sapiens, UniProt O43353).
T2 construct: the N-terminus of full-length RIPK2 was appended with the HaloTag fusion protein; expressed in transfected cells; host or cells: HEK293T
Put plainly: Inhibition of the interaction of RIPK2 with XIAP (NanoBRET in HEK293T cells). The class given is cell-based. Conditions: RIPK2 HaloTag / XIAP NanoLuc, read-out: NanoBRET Scaffolding IC50. An excerpt:
An assay measuring the RIPK2 and XIAP protein-protein interaction was generated using the NanoBRET protein:protein interaction system (Promega) which measures the energy transfer from a bioluminescent protein donor (NanoLuc fusion protein) to a fluorescent protein acceptor (Halotag fusion protein). In this assay, the C-terminus of full-length XIAP was appended with the NanoLuc fusion protein and the N-terminus of full-length RIPK2 was appended with the HaloTag fusion protein. Assay medium consisted of Opti-MEM I reduced serum medium with no phenol red plus 4% heat inactivated FBS. Transfection reagents were combined in a microfuge tube as follows: 400 μL of assay medium, 8 μL of vector with N-terminus of RIPK2 HaloTag fusion protein (vector concentration at 1 μg/μL), 0.8 μL of vector with C-terminus of XIAP NanoLuc fusion protein (vector concentration at 1 μg/μL), and 24 μL of FuGENE HD transfection reagent (Promega, catalogue number E2312). […] Test compounds were prepared into a 10 mM DMSO solution and were serially diluted into 10 points using a 3-fold dilution in a 384 well plate using a TECAN EV0200.
Method: HEK293T cells were transfected with the RIPK2 HaloTag fusion and XIAP NanoLuc fusion vectors in suspension. […] Transfection reagents were pre-mixed and incubated at room temperature for 30 minutes. Then the total transfection reagent mixture was added dropwise to the 16 mL cell suspension and mixed gently. 40 μL of the cells and transfection reagent suspension was plated into a white 384 well plate and incubated at 37° C. in a CO2 incubator for 24 hours. […] Lastly, a 3× solution of NanoBRET Nano-Glo substrate in Opti-MEM I reduced serum media (no phenol red; 20 μL total volume) was added to each well and incubated for 2-3 minutes at room temperature. The plate was then measured using 460 nm filter (donor emission) and 618 nm filter (acceptor emission) in an EnVision multimode plate reader (PerkinElmer). The NanoBRET ratio values were determined by dividing the acceptor emission value by the donor emission value for each sample.

T2 sequence (O43353 whole entry, the tested form may be a part): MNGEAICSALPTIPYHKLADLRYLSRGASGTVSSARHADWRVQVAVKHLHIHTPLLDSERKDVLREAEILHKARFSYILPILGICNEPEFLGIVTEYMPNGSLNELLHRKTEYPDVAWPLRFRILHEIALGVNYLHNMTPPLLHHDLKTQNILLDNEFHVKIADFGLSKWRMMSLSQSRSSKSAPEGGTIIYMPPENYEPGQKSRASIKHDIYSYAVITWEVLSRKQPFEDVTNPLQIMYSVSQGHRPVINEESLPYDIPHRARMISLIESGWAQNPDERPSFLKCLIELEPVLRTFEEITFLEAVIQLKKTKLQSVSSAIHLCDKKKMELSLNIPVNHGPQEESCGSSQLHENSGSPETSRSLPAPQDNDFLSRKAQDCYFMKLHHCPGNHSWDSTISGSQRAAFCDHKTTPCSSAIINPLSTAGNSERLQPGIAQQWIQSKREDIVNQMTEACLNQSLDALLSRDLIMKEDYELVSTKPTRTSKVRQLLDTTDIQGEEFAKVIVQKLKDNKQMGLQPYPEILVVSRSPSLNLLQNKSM
T1 sequence (O43353 1-299 limits assumed): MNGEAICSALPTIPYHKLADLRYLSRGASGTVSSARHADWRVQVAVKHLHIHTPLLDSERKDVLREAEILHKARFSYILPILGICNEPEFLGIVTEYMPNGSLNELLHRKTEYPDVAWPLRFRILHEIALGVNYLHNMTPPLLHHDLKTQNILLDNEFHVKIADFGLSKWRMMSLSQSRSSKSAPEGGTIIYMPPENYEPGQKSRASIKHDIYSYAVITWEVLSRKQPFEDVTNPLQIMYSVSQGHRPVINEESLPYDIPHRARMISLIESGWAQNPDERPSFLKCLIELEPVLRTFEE

For `Cc1cc(CC(=O)Nc2cnn(C(C)(C)C)c2)c(F)cc1Oc1ccnc2ccc(-c3nccnc3C)cc12` [Compound 476, N-(1-(tert-butyl)-1H-pyrazol-4-yl)-2-(2-fluoro-5-methyl-4-((6-(3-methylpyrazin-2-yl)quinolin-4-yl)oxy)phenyl)acetamide], the results for the IC50 in test [1], in test [2] and in test [3] were less than 2.5 nM, 5.9 nM and 52.1 nM, respectively.

In the case of `Cc1cc(CC(=O)Nc2cnn(C(C)(C)C)c2)c(F)cc1Oc1ccnc2ccc(-c3ncncc3C)cc12` [Compound 477, N-(1-(tert-butyl)-1H-pyrazol-4-yl)-2-(2-fluoro-5-methyl-4-((6-(5-methylpyrimidin-4-yl)quinolin-4-yl)oxy)phenyl)acetamide], the IC50 is less than 2.5 nM in test [1], 5.4 nM in test [2] and 38.7 nM in test [3].

Consider `Cc1cc(CC(=O)Nc2cnn(C(C)(C)C)c2)c(F)cc1Oc1ccnc2ccc(-c3c[nH]nc3C)cc12` [Compound 479, N-(1-(tert-butyl)-1H-pyrazol-4-yl)-2-(2-fluoro-5-methyl-4-((6-(3-methyl-1H-pyrazol-4-yl)quinolin-4-yl)oxy)phenyl)acetamide], for which the IC50 in test [1] was less than 2.5 nM; in test [2], 1.4 nM; in test [3] it was 5.8 nM.

For `CNCc1nnc(-c2ccc3nccc(Oc4cc(F)c(CC(=O)Nc5cnn(C(C)(C)C)c5)cc4C)c3c2)o1` [Compound 481, N-(1-(tert-butyl)-1H-pyrazol-4-yl)-2-(2-fluoro-5-methyl-4-((6-(5-((methylamino)methyl)-1,3,4-oxadiazol-2-yl)quinolin-4-yl)oxy)phenyl)acetamide], the IC50 was less than 2.5 nM in test [1], 4.2 nM in test [2] and 4.5 nM in test [3].

As for `Cc1nnc(-c2ccc3nccc(Oc4cc(F)c(CC(=O)Nc5cnn(C(C)(C)C)c5)cc4C)c3c2)o1` [Compound 482, N-(1-(tert-butyl)-1H-pyrazol-4-yl)-2-(2-fluoro-5-methyl-4-((6-(5-methyl-1,3,4-oxadiazol-2-yl)quinolin-4-yl)oxy)phenyl)acetamide], the IC50 in test [1] is less than 2.5 nM; in test [2] it was 0.3 nM; in test [3] it was 4.6 nM.

As for `Cc1cc(CC(=O)Nc2cnn(C(C)(C)C)c2)ccc1Oc1ccnc2ccc(C(N)=O)cc12` [Compound 487, 4-(4-(2-((1-(tert-butyl)-1H-pyrazol-4-yl)amino)-2-oxoethyl)-2-methylphenoxy)quinoline-6-carboxamide], the IC50 in test [1] was less than 2.5 nM; in test [2], 0.3 nM; in test [3] it was 47.5 nM.

Turning to `CNC(=O)c1ccc2nccc(Oc3ccc(CC(=O)Nc4cnn(C(C)(C)C)c4)cc3C)c2c1` [Compound 488, 4-(4-(2-((1-(tert-butyl)-1H-pyrazol-4-yl)amino)-2-oxoethyl)-2-methylphenoxy)-N-methylquinoline-6-carboxamide], the IC50 was less than 2.5 nM in test [1], 0.2 nM in test [2] and 3.4 nM in test [3].

As for `Cc1cc(CC(=O)Nc2cnn(C(C)(C)C)c2)ccc1Oc1ccnc2cc(F)c(C(N)=O)cc12` [Compound 489, 4-(4-(2-((1-(tert-butyl)-1H-pyrazol-4-yl)amino)-2-oxoethyl)-2-methylphenoxy)-7-fluoroquinoline-6-carboxamide], the IC50 in test [1] was less than 2.5 nM; in test [2], 0.1 nM; in test [3], 7.1 nM.

For `CNC(=O)c1cc2c(Oc3ccc(CC(=O)Nc4cnn(C(C)(C)C)c4)cc3C)ccnc2cc1F` [Compound 490, 4-(4-(2-((1-(tert-butyl)-1H-pyrazol-4-yl)amino)-2-oxoethyl)-2-methylphenoxy)-7-fluoro-N-methylquinoline-6-carboxamide], the IC50 in test [1] was less than 2.5 nM; in test [2] it was 0.1 nM; in test [3] it was 24.2 nM.

In the case of `[2H]C([2H])([2H])NC(=O)c1cc2c(Oc3cc(F)c(CC(=O)Nc4cnn(C(C)(C)C)c4)cc3C)ccnc2cc1F` [Compound 494, 4-(4-(2-((1-(tert-butyl)-1H-pyrazol-4-yl)amino)-2-oxoethyl)-5-fluoro-2-methylphenoxy)-7-fluoro-N-(methyl-d3)quinoline-6-carboxamide], the IC50 was less than 2.5 nM in test [1], 0.4 nM in test [2] and 20.5 nM in test [3].

With `Cc1cc(CC(=O)Nc2cnn(C(C)(C)C)c2)ccc1Oc1ccnc2cc(C)c(S(C)(=O)=O)cc12` [Compound 495, N-(1-(tert-butyl)-1H-pyrazol-4-yl)-2-(3-methyl-4-((7-methyl-6-(methylsulfonyl)quinolin-4-yl)oxy)phenyl)acetamide], the IC50 in test [1] was less than 2.5 nM; in test [2] it was 0.5 nM; in test [3] it was 70.8 nM.

Turning to `Cc1cc(CC(=O)Nc2cnn(C(C)(C)C)c2)c(F)cc1Oc1ccnc2cc(C)c(S(C)(=O)=O)cc12` [Compound 496, N-(1-(tert-butyl)-1H-pyrazol-4-yl)-2-(2-fluoro-5-methyl-4-((7-methyl-6-(methylsulfonyl)quinolin-4-yl)oxy)phenyl)acetamide], the values for the IC50 in test [1], in test [2] and in test [3] were less than 2.5 nM, 0.5 nM and 127 nM, respectively.

For the molecule `CC(C)(C)n1cc(NC(=O)Cc2cc(Cl)c(Oc3ccnc4ccc(C(N)=O)cc34)cc2F)cn1` [Compound 497, 4-(4-(2-((1-(tert-butyl)-1H-pyrazol-4-yl)amino)-2-oxoethyl)-2-chloro-5-fluorophenoxy)quinoline-6-carboxamide], the IC50 was less than 2.5 nM in test [1], 0.6 nM in test [2] and 10.8 nM in test [3].

`CNC(=O)c1ccc2nccc(Oc3cc(F)c(CC(=O)Nc4cnn(C(C)(C)C)c4)cc3Cl)c2c1` [Compound 498, 4-(4-(2-((1-(tert-butyl)-1H-pyrazol-4-yl)amino)-2-oxoethyl)-2-chloro-5-fluorophenoxy)-N-methylquinoline-6-carboxamide]: the IC50 is less than 2.5 nM in test [1], 0.4 nM in test [2] and 13.7 nM in test [3].

Turning to `Cc1cc(CC(=O)Nc2cnn(C34CC(C3)C4)c2)ccc1Oc1ccnc2ccc(C(N)=O)cc12` [Compound 499, 4-(4-(2-((1-(bicyclo[1.1.1]pentan-1-yl)-1H-pyrazol-4-yl)amino)-2-oxoethyl)-2-methylphenoxy)quinoline-6-carboxamide], the IC50 in test [1] was less than 2.5 nM; in test [2], 1.1 nM; in test [3], 21.9 nM.

Consider `CNC(=O)c1ccc2nccc(Oc3ccc(CC(=O)Nc4cnn(C56CC(C5)C6)c4)cc3C)c2c1` [Compound 500, 4-(4-(2-((1-(bicyclo[1.1.1]pentan-1-yl)-1H-pyrazol-4-yl)amino)-2-oxoethyl)-2-methylphenoxy)-N-methylquinoline-6-carboxamide], for which the figures for the IC50 in test [1], in test [2] and in test [3] were less than 2.5 nM, 0.4 nM and 7.4 nM, respectively.

In the case of `Cc1cc(CC(=O)Nc2cnn(C34CC(C3)C4)c2)c(F)cc1Oc1ccnc2ccc(C(N)=O)cc12` [Compound 501, 4-(4-(2-((1-(bicyclo[1.1.1]pentan-1-yl)-1H-pyrazol-4-yl)amino)-2-oxoethyl)-5-fluoro-2-methylphenoxy)quinoline-6-carboxamide], the IC50 is less than 2.5 nM in test [1], 2.2 nM in test [2] and 62.9 nM in test [3].

With `CNC(=O)c1ccc2nccc(Oc3cc(F)c(CC(=O)Nc4cnn(C56CC(C5)C6)c4)cc3C)c2c1` [Compound 502, 4-(4-(2-((1-(bicyclo[1.1.1]pentan-1-yl)-1H-pyrazol-4-yl)amino)-2-oxoethyl)-5-fluoro-2-methylphenoxy)-N-methylquinoline-6-carboxamide], the IC50 was less than 2.5 nM in test [1], 0.8 nM in test [2] and 17.5 nM in test [3].

`Cc1c(Oc2ccnc3ccc(C(N)=O)cc23)cc(F)c(CC(=O)Nc2cnn(C(C)(C)C)c2)c1F` [Compound 503, 4-(4-(2-((1-(tert-butyl)-1H-pyrazol-4-yl)amino)-2-oxoethyl)-3,5-difluoro-2-methylphenoxy)quinoline-6-carboxamide]: the IC50 was less than 2.5 nM in test [1], 0.2 nM in test [2] and 63.1 nM in test [3].

Source of the values: US12624018B1, “Inhibitors of RIPK2 and medical uses thereof” (Odyssey Therapeutics, Inc., priority 2022, dated 2026).
